Experimental data taken from PubChem BioAssay (NCI).
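Values below derive from 48-hour exposures of cells grown in 96-well plates, with endpoints linearly interpolated between the two concentrations bracketing the appropriate inhibition level. The concentration for full growth arrest is given as TGI.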

Tests used:
Experiment in all cases: growth of human tumour cells (NCI), 48 h
SW-620 colon = system: SW-620 colon
NCI-H522 lung = system: NCI-H522 lung
EKVX NSCLC = system: EKVX NSCLC
SR leukemia = system: SR leukemia
SN12C renal = system: SN12C renal
RPMI-8226 leukemia = system: RPMI-8226 leukemia
IGROV1 ovarian = system: IGROV1 ovarian
SF-268 CNS = system: SF-268 CNS
U251 CNS = system: U251 CNS
CCRF-CEM leukemia = system: CCRF-CEM leukemia
NCI-H460 lung = system: NCI-H460 lung
786-0 renal = system: 786-0 renal
M14 melanoma = system: M14 melanoma
UACC-257 melanoma = system: UACC-257 melanoma
RXF 393 renal = system: RXF 393 renal
UACC-62 melanoma = system: UACC-62 melanoma
MDA-MB-435 = system: MDA-MB-435
HS 578T breast = system: HS 578T breast
HCT-116 colon = system: HCT-116 colon
BT-549 breast = system: BT-549 breast
A498 renal = system: A498 renal
HCT-15 colon = system: HCT-15 colon
MOLT-4 leukemia = system: MOLT-4 leukemia
SF-539 CNS = system: SF-539 CNS
OVCAR-8 ovarian = system: OVCAR-8 ovarian
CAKI-1 renal = system: CAKI-1 renal
HL-60(TB) leukemia = system: HL-60(TB) leukemia
PC-3 prostate = system: PC-3 prostate
SNB-19 CNS = system: SNB-19 CNS
HOP-62 NSCLC = system: HOP-62 NSCLC
SK-MEL-28 melanoma = system: SK-MEL-28 melanoma
SNB-75 CNS = system: SNB-75 CNS
ACHN renal = system: ACHN renal
OVCAR-5 ovarian = system: OVCAR-5 ovarian
SK-MEL-5 melanoma = system: SK-MEL-5 melanoma
MALME-3M melanoma = system: MALME-3M melanoma
OVCAR-4 ovarian = system: OVCAR-4 ovarian
MDA-N = system: MDA-N
DU-145 prostate = system: DU-145 prostate
COLO 205 colon = system: COLO 205 colon
A549 NSCLC = system: A549 NSCLC
HOP-92 NSCLC = system: HOP-92 NSCLC
NCI-H226 lung = system: NCI-H226 lung
TK-10 renal = system: TK-10 renal
K-562 leukemia = system: K-562 leukemia
HCC-2998 colon = system: HCC-2998 colon
SF-295 CNS = system: SF-295 CNS
LOX IMVI melanoma = system: LOX IMVI melanoma
SK-MEL-2 melanoma = system: SK-MEL-2 melanoma
MCF7 breast = system: MCF7 breast
OVCAR-3 ovarian = system: OVCAR-3 ovarian
NCI-H23 lung = system: NCI-H23 lung
T-47D breast = system: T-47D breast
HT29 colon = system: HT29 colon
SK-OV-3 ovarian = system: SK-OV-3 ovarian
NCI/ADR-RES ovarian = system: NCI/ADR-RES ovarian
MDA-MB-231 breast = system: MDA-MB-231 breast
KM12 colon = system: KM12 colon
UO-31 renal = system: UO-31 renal

## O=C1CCc2cc(Br)ccc2O1
SW-620 colon
  TGI: > 100 µM
NCI-H522 lung
  TGI: > 100 µM
EKVX NSCLC
  TGI: > 100 µM
SR leukemia
  TGI: > 100 µM
SN12C renal
  TGI: > 100 µM
RPMI-8226 leukemia
  TGI: > 100 µM
IGROV1 ovarian
  TGI: > 100 µM
SF-268 CNS
  TGI: > 100 µM
U251 CNS
  TGI: > 100 µM
CCRF-CEM leukemia
  TGI: > 100 µM
NCI-H460 lung
  TGI: > 100 µM
786-0 renal
  TGI: > 100 µM
M14 melanoma
  TGI: > 100 µM
UACC-257 melanoma
  TGI: > 100 µM
RXF 393 renal
  TGI: 91.2 µM
UACC-62 melanoma
  TGI: > 100 µM
MDA-MB-435
  TGI: > 100 µM
HS 578T breast
  TGI: > 100 µM
HCT-116 colon
  TGI: > 100 µM
BT-549 breast
  TGI: > 100 µM
A498 renal
  TGI: > 100 µM
HCT-15 colon
  TGI: > 100 µM
MOLT-4 leukemia
  TGI: > 100 µM
SF-539 CNS
  TGI: > 100 µM
OVCAR-8 ovarian
  TGI: > 100 µM
CAKI-1 renal
  TGI: > 100 µM
HL-60(TB) leukemia
  TGI: > 100 µM
PC-3 prostate
  TGI: > 100 µM
SNB-19 CNS
  TGI: > 100 µM
HOP-62 NSCLC
  TGI: > 100 µM
SK-MEL-28 melanoma
  TGI: > 100 µM
SNB-75 CNS
  TGI: 92.8 µM
ACHN renal
  TGI: > 100 µM
OVCAR-5 ovarian
  TGI: > 100 µM
SK-MEL-5 melanoma
  TGI: > 100 µM
MALME-3M melanoma
  TGI: > 100 µM
OVCAR-4 ovarian
  TGI: > 100 µM
MDA-N
  TGI: > 100 µM
DU-145 prostate
  TGI: > 100 µM
COLO 205 colon
  TGI: > 100 µM
A549 NSCLC
  TGI: > 100 µM
HOP-92 NSCLC
  TGI: > 100 µM
NCI-H226 lung
  TGI: > 100 µM
TK-10 renal
  TGI: > 100 µM
K-562 leukemia
  TGI: > 100 µM
HCC-2998 colon
  TGI: > 100 µM
SF-295 CNS
  TGI: > 100 µM
LOX IMVI melanoma
  TGI: > 100 µM
SK-MEL-2 melanoma
  TGI: > 100 µM
MCF7 breast
  TGI: > 100 µM
OVCAR-3 ovarian
  TGI: > 100 µM
NCI-H23 lung
  TGI: > 100 µM
T-47D breast
  TGI: > 100 µM
HT29 colon
  TGI: > 100 µM

## Nc1ncnc2c1ccn2CC#CCO
SW-620 colon
  TGI: > 100 µM
NCI-H522 lung
  TGI: > 100 µM
EKVX NSCLC
  TGI: > 100 µM
SN12C renal
  TGI: > 100 µM
RPMI-8226 leukemia
  TGI: > 100 µM
IGROV1 ovarian
  TGI: > 100 µM
SF-268 CNS
  TGI: > 100 µM
U251 CNS
  TGI: > 100 µM
CCRF-CEM leukemia
  TGI: > 100 µM
SK-OV-3 ovarian
  TGI: > 100 µM
NCI-H460 lung
  TGI: > 100 µM
786-0 renal
  TGI: > 100 µM
M14 melanoma
  TGI: > 100 µM
UACC-257 melanoma
  TGI: > 100 µM
RXF 393 renal
  TGI: > 100 µM
UACC-62 melanoma
  TGI: > 100 µM
MDA-MB-435
  TGI: > 100 µM
HS 578T breast
  TGI: > 100 µM
HCT-116 colon
  TGI: > 100 µM
BT-549 breast
  TGI: > 100 µM
A498 renal
  TGI: > 100 µM
HCT-15 colon
  TGI: > 100 µM
MOLT-4 leukemia
  TGI: > 100 µM
SF-539 CNS
  TGI: > 100 µM
OVCAR-8 ovarian
  TGI: > 100 µM
CAKI-1 renal
  TGI: > 100 µM
HL-60(TB) leukemia
  TGI: > 100 µM
PC-3 prostate
  TGI: > 100 µM
SNB-19 CNS
  TGI: > 100 µM
HOP-62 NSCLC
  TGI: > 100 µM
SK-MEL-28 melanoma
  TGI: > 100 µM
SNB-75 CNS
  TGI: > 100 µM
ACHN renal
  TGI: > 100 µM
OVCAR-5 ovarian
  TGI: > 100 µM
SK-MEL-5 melanoma
  TGI: > 100 µM
MALME-3M melanoma
  TGI: > 100 µM
OVCAR-4 ovarian
  TGI: > 100 µM
MDA-N
  TGI: > 100 µM
DU-145 prostate
  TGI: > 100 µM
COLO 205 colon
  TGI: > 100 µM
A549 NSCLC
  TGI: > 100 µM
HOP-92 NSCLC
  TGI: > 100 µM
NCI/ADR-RES ovarian
  TGI: > 100 µM
TK-10 renal
  TGI: > 100 µM
MDA-MB-231 breast
  TGI: > 100 µM
K-562 leukemia
  TGI: > 100 µM
HCC-2998 colon
  TGI: > 100 µM
KM12 colon
  TGI: > 100 µM
SF-295 CNS
  TGI: > 100 µM
LOX IMVI melanoma
  TGI: > 100 µM
SK-MEL-2 melanoma
  TGI: > 100 µM
MCF7 breast
  TGI: > 100 µM
UO-31 renal
  TGI: > 100 µM
OVCAR-3 ovarian
  TGI: > 100 µM
NCI-H23 lung
  TGI: > 100 µM
T-47D breast
  TGI: > 100 µM
HT29 colon
  TGI: > 100 µM
